# In ChEMBL document CHEMBL1159224, “A new cytotoxic dihydroxy sterol from the soft coral Alcyonium patagonicum” (J Nat Prod, 1995):
# Test system: P388
# Assay: Cytotoxicity against mouse P388 cells
# Assay type: functional, cell-based
structure (smiles),measurement,value
C=C(CC[C@@H](C)[C@H]1CC[C@H]2[C@@H]3C[C@@H](O)C4=C[C@@H](O)CC[C@]4(C)[C@H]3CC[C@]12C)C(C)C,IC50,1 µg/mL
